# Columns and labels:
# [1] = Cyclic voltammetry, metal-centered redox potential; assay type: physicochemical; details: 90/10 (v/v) methanol/aqueous solution, pH* 7.9
# Procedure: Manganese(III) Salen. The compound was prepared by the published procedure (Boucher, J. lnorg. Nucl. Chem. 36:531 (1974)). The uv/vis in water: ε235=3.70×10^4 cm^−1 M^−1, ε279=1.70×10^4 cm^−1 M^−1, ε397=4.60×10^3 cm^−M^−1. The elemental analysis: Anal. Calcd for Mn^IIIsalenCl, C16H14N2O2MnCl: C, 53.88; H, 3.96; N; 7.85. Found: C, 54.02; H, 4.06; N, 7.85. […] Based on the E1/2 of Mn^IIITM-2-PyP^5+, ferrocenemethanol and of K3Fe(CN)6 in water and methanol, the redox potential of Mn^III salen^+ in water was calculated to be E1/2=−0.13 V vs NHE.
# Electrochemistry of the Manganese(III) Biliverdin Dimethylester. Measurements were made using a CH Instruments model 600 voltammetric analyzer as described previously(Batinic-Haberle et al, Inorg. Chem. 38:4011 (1999)). A three-electrode system in a small volume (0.5-3.0 mL), with a 3 mm diameter glassy carbon button working electrode (Bioanalytical Systems), Ag/AgCl reference electrode (3 M NaCl, Bioanalytical Systems), and a Pt wire (0.5 mm) as auxiliary electrode, were used. The cyclic votammetry was performed on 0.5 mM (per manganese) methanol/aqueous (90/10, v/v) solutions of the compounds investigated. The ionic strength was kept at 0.10 M (NaCl), and 0.05 M tris buffer was used for pH^* adjustment. For calibration purposes, compounds of different hydrophilicities, […], (Kolthof et al, J. Phys. Chem. 39:945 (1935)) ferrocenemethanol and Mn^IIITM-2-PyP^5+ were studied in both aqueous and methanol/aqueous (90/10, v/v) solutions (I=0.10 M NaCl, 0.05 M tris buffer, pH^* 7.9). In all cases the measured E1/2 was 170 mV more positive in methanolic than in aqueous solution and this value was used to predict the redox potential in aqueous solution from measurement in methanol/aqueous solution.
# Solubility = assay type: physicochemical
# [2] = Degradation by H2O2 followed by uv/vis spectroscopy; assay type: physicochemical
# Description: Uv/vis Spectroscopy. […] Also the effects of EDTA, H2O2, and the methanol/water ratio on the stability of the manganese(III) complex were examined. […] 79:699 (1960)). When needed the biliverdin and biliverdin dimethylester as well as their reduced forms bilirubin and bilirubin dimethylester were studied. At μM concentrations, manganese(III) and iron(III) porphyrins are degraded by H2O2 in aqueous solution. pH 7.8 (Batinic-Haberle et al, Inorg. Chem. 38:4011 (1999), Everett et al, J. Trans. Faraday Soc. 49:410 (1953)). […] The reaction was followed in 90/10, v/v methanouaqueous solution at pH^* 7.9. […] The uv/vis spectroscopy indicated degradation via the reduction of biliverdin to bilirubin followed by loss of metal (Gray et al, J. Chem. Soc. 2276 (1961); Kuenzle et al, Biochem. J. 130:1147 (1972); […], Nature 899 (1962)). The interaction of biliverdin and bilirubin with H2O, was also followed in 0.05 M tris buffer, pH 7.8. As observed for its metal complex, biliverdin undergoes reduction by H2O2 via bilirubin. Under pseudo-first order conditions (6 mM to 60 mM H2O2, 60 μM biliverdin), the second-order rate constant was k=3×10^-3 M^-1 s^-1. Bilirubin is more resistant to H2O2 than biliverdin or its metal complex. The disappearance of bilirubin was followed at 435 nm (Gray et al, J. Chem. Soc. 2268 (1961)). Under conditions given above and at 60 mM H2O2, about 40% of the biliverdin and 14% of bilirubin was degraded within 4.4 hours, and about 14% of the complex was degraded inside 80 min.
# [3] = system: SOD-deficient E. coli JI132; assay: Aerobic growth of SOD-deficient E. coli in minimal medium; assay type: cell-based
# Procedure: FIG. 13. […] The 20 mM ethanolic/albumin solution of compound was diluted into the medium. Also the growth of SOD-deficient E. coli was followed in the presence of 0.15% ethanol only (squares).
# SOD activity can be monitored in the presence and absence of EDTA using the method of McCord and Fridovich (J. Biol. Chem. 244:6049 (1969)). The efficacy of a mimetic can also be determined by measuring the effect of the mimetic on the aerobic growth of a SOD null E. coli strain versus a parent strain. Specifically, parental E. coli (AB1157) and SOD null E. coli. […]
# Effects on E. coli. E. coli strains AB1157 (SOD-proficient, wild type) and JI132 (SOD-deficient, sodAsodB) were obtained from J. A. Imlay (Imlay et al, J. Bacteriol. 169:2967 (1987)). […] Cultures were treated as previously described (Faulkner et al, J. Biol. Chem. 269:23471 (1994); Benov et al, J. Biol. Chem. 273:10313 (1998)). Due to the low water solubility, the compounds were solubilized with albumin in medium at a 1:1 molar ratio. Albumin itself had no effect on growth in the concentration range employed. Since methanol was toxic to the SOD-deficient strain of E. coli even when present in medium at 0.15%, the stock solutions of the compounds were prepared in ethanol.
# [4] = Stability in the presence of excess EDTA (uv/vis); assay type: physicochemical
# Procedure: Uv/vis Spectroscopy. […] Also the effects of EDTA, H2O2, and the methanol/water ratio on the stability of the manganese(III) complex were examined. […] […] 79:699 (1960)). When needed the biliverdin and biliverdin dimethylester as well as their reduced forms bilirubin and bilirubin dimethylester were studied. […] In a week, at 25° C., only 14% of the complex dissociated. When the water content was increased to 43%, half the complex dissociated in a week.
# [5] = Reactivity towards nitric oxide (uv/vis); assay type: physicochemical; details: 14 μM, 90-fold excess NO, 90/10 methanol/PBS, 1 hour
substance,measurement,setting,value
Manganese(III) Biliverdin IX Dimethylester [{Mn^IIIBVDME}2],"E1/2, V vs Ag/AgCl",[1]; Mn(III)/Mn(II) couple,−0.32 V vs Ag/AgCl
same,"E1/2, V vs Ag/AgCl",[1]; Mn(III)/Mn(IV) couple,+0.36 V vs Ag/AgCl
same,"E1/2, V vs Ag/AgCl","[1]; Mn(III)/Mn(IV) couple, listed as ½ {Mn^III/IVBVDME^0/−}2",−0.36 V vs Ag/AgCl
same,solubility in organic solvents,"Solubility; ethanol, methanol",soluble in ethanol and methanol
same,solubility in water,Solubility; water,~10^−8 M
same,fraction degraded by H2O2,"[2]; 60 mM H2O2, inside 80 min",about 14%
same,second-order rate constant k of H2O2 induced degradation,"[2]; 90/10 v/v methanol/aqueous, pH* 7.9, 6 mM to 120 mM H2O2, 15 and 30 μM complex",0.00064 M⁻¹ s⁻¹
same,growth of SOD-deficient E. coli,"[3]; 13 μM, after 15 hours, SOD-proficient 100%, SOD-deficient without compound 16%",50%
same,growth of SOD-deficient E. coli (in words),[3]; 0.1 to 13 μM in minimal medium,markedly improved
same,effect on SOD-deficient E. coli growing under aerobic conditions (in words),[3]; minimal (five amino acids) medium,significant protection
same,stability in the presence of EDTA,"[4]; 1 μM, 900-fold excess EDTA (0.9 mM), 2-4 hours, 25° C., methanol/aqueous (90/10), 0.05 M tris, pH* 7.9",stable
same,stability in the presence of EDTA,"[4]; 20 μM, 900-fold excess of EDTA, pH 7.8",stable
same,reactivity towards NO (change of spectrum),[5],No change in the spectrum
same,reactivity towards NO (change of spectrum),[5]; listed as compound of FIG. 2C,No reactivity towards NO has been detected

# Reference: US20040039211A1, “Tetrapyrroles” (DUKE UNIVERSITY AND NATIONAL JEWISH MEDICAL AND RESEARCH …, priority 2000, published 2004)
